Assay results: US20240391862A1, “(1,4,5-TRISUBSTITUTED-1H-PYRAZOL-3-YL)OXY-2-ALKOXY ALKYL ACIDS AND THEIR DERIVATIVES, THEIR SALTS AND THEIR USE AS HERBICIDAL AGENTS” (Bayer AKtiengesellschaft, priority 2021, published 2024)

How the values were obtained:
[1] = system: TRZAS; assay: Pre-emergence herbicidal effect and crop plant compatibility, greenhouse pot test; assay type: in vivo, Triticum aestivum; conditions: scored visually after about 3 weeks vs untreated controls
From the text: (§1) Seeds of monocotyledonous and dicotyledonous weed plants and crop plants are placed in plastic or organic planting pots and covered with soil. The compounds of the invention, formulated in the form of wettable powders (WP) or as emulsion concentrates (EC), are then applied to the surface of the covering soil as aqueous suspension or emulsion with addition of 0.5% additive at a water application rate equivalent to 600 l/ha. After the treatment, the pots are placed in a greenhouse and kept under good growth conditions for the trial plants. After about 3 weeks, the effect of the preparations is scored visually in comparison with untreated controls as percentages. For example, 100% activity=the plants have died, 0% activity=like control plants.
(§2) Tables 1a to 19c below show the effects/crop compatibilities of selected compounds of the general formula (I) on various harmful plants at an application rate corresponding to 20 to 320 g/ha, which were obtained by the trial procedure specified above.
(§3) • ALOMY: Alopecurus myosuroides SETVI: Setaria viridis • AVEFA: Avena fatua POLCO: Fallopia convolvulus • AMARE: Amaranthus retroflexus ECHCG: Echinochloa crus-galli • LOLRJ: Lolium rigidum STEME: Stellaria media • VERPE: Veronica persica MATIN: Tripleurospermum inodorum • DIGSA: Digitaria sanguinalis ABUTH: Abutylon threophrasti • TRZAS: Triticum aestivum VIOTR: Viola tricolor • BRSNW: Brassica napus ZEAMX: Zea mays • PHBPU: Ipomoea purpurea GLXMA: Glycine max • ORYSA: Oryza sativa HORMU: Hordeum murinum

[2] = system: ZEAMX; assay: as above; assay type: in vivo, Zea mays; conditions: scored visually after about 3 weeks vs untreated controls
From the text: as §1, §2, §3

[3] = system: ORYSA; assay: Post-emergence herbicidal effect and crop plant compatibility, greenhouse pot test; assay type: in vivo, Oryza sativa; conditions: 80 g/ha, visual rating about 3 weeks after treatment, crop plant
How it was run: (§4)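 Greenhouse pot test: weeds and crops sown in sandy loam, sprayed post-emergence at one-leaf stage (2–3 weeks after sowing) with WP or EC formulations plus 0.5% additive at 600 l/ha water, rates 20–320 g/ha. Visual rating about 3 weeks later versus untreated controls (100% = dead, 0% = as control).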

[4] = system: GLXMA; assay: as above; assay type: in vivo, Glycine max; conditions: visual rating about 3 weeks after treatment, crop plant
From the text: as §3
Seeds of monocotyledonous and dicotyledonous weeds and crop plants are placed in sandy loam in plastic or organic planting pots, covered with soil and cultivated in a greenhouse under controlled growth conditions. 2 to 3 weeks after sowing, the trial plants are treated at the one-leaf stage. The compounds of the invention, formulated in the form of wettable powders (WP) or as emulsion concentrates (EC), are then sprayed onto the green parts of the plants as aqueous suspension or emulsion with addition of 0.5% additive at a water application rate of 600 l/ha (converted). After the test plants have been kept in the greenhouse under optimum growth conditions for about 3 weeks, the activity of the preparations is rated visually in comparison to untreated controls. For example, 100% activity=the plants have died, 0% activity=like control plants.
Tables 20a to 38c below show the effects/crop compatibilities of selected compounds of the general formula (I) on various harmful plants at an application rate corresponding to 20 to 320 g/ha, which were obtained by the trial procedure specified above.

[5] = system: BRSNW; assay: Pre-emergence herbicidal effect and crop plant compatibility, greenhouse pot test; assay type: in vivo, Brassica napus; conditions: scored visually after about 3 weeks vs untreated controls
From the text: as §1, §2, §3

[6] = system: GLXMA; assay: as above; assay type: in vivo, Glycine max; conditions: scored visually after about 3 weeks vs untreated controls
From the text: as §1, §2, §3

[7] = system: ZEAMX; assay: Post-emergence herbicidal effect and crop plant compatibility, greenhouse pot test; assay type: in vivo, Zea mays; conditions: one-leaf stage, rated visually after about 3 weeks vs untreated controls
How it was run: as §4

[8] = system: TRZAS; assay: as above; assay type: in vivo, Triticum aestivum; conditions: for Post-emergence effect against TRZAS: visual rating about 3 weeks after treatment, crop plant; for Post-emergence effect at 20 g/ha against TRZAS in %: one-leaf stage, rated visually after about 3 weeks vs untreated controls
How it was run: as §4

[9] = system: VERPE; assay: Post-emergence herbicidal effect, greenhouse pot test; assay type: in vivo, Veronica persica; conditions: 320 g/ha
How it was run: as §4

[10] = system: AVEFA; assay: as above; assay type: in vivo, Avena fatua; conditions: 320 g/ha, visual rating about 3 weeks after treatment
How it was run: as §4

[11] = system: POLCO; assay: as above; assay type: in vivo, Fallopia convolvulus; conditions: 320 g/ha
How it was run: as §4

[12] = system: PHBPU; assay: as above; assay type: in vivo, Ipomoea purpurea; conditions: 320 g/ha
How it was run: as §4

[13] = system: ABUTH; assay: as above; assay type: in vivo, Abutilon theophrasti; conditions: visual rating about 3 weeks after treatment
How it was run: as §4

[14] = system: AMARE; assay: as above; assay type: in vivo, Amaranthus retroflexus; conditions: 320 g/ha, visual rating about 3 weeks after treatment
How it was run: as §4

SMILES | Pre-emergence effect at 80 g/ha against TRZAS in % [1] [%] | Pre-emergence effect at 320 g/ha against TRZAS in % [1] [%] | Post-emergence effect against ORYSA [3] [%] | Post-emergence effect against GLXMA ([4]; 80 g/ha) [%] | Pre-emergence effect at 80 g/ha against GLXMA in % [6] [%] | Pre-emergence effect at 320 g/ha against GLXMA in % [6] [%] | Post-emergence effect at 80 g/ha against ZEAMX in % [7] [%] | Post-emergence effect at 320 g/ha against ZEAMX in % [7] [%] | Post-emergence effect against TRZAS ([8]; 80 g/ha) [%] | Post-emergence effect against TRZAS ([8]; 320 g/ha) [%] | Post-emergence effect against GLXMA ([4]; 20 g/ha) [%] | Post-emergence effect against PHBPU in % [12] [%] | Post-emergence effect at 20 g/ha against ZEAMX in % [7] [%] | Post-emergence effect at 20 g/ha against TRZAS in % [8] [%] | other results
CCOC(=O)C(OCC)Oc1nn(-c2ccc(Cl)cc2F)c(-c2ccc(F)cc2F)c1Br (stereo not shown) [Example I-09] | 0 | 20 | 10 | 10 | 10 | 10 | 0 | 0 | 0 | 0 |  |  |  |  | Pre-emergence effect at 320 g/ha against ZEAMX in % ([2]; 320 g/ha): 10%; Post-emergence effect against GLXMA ([4]; 320 g/ha): 20%; Pre-emergence effect at 80 g/ha against BRSNW in % ([5]; 80 g/ha): 0%; Pre-emergence effect at 320 g/ha against BRSNW in % ([5]; 320 g/ha): 0%
COC(=O)C(OC)Oc1nn(-c2ccc(Cl)cc2F)c(-c2ccc(F)cc2F)c1Br (stereo not shown) [Example I-11] | 0 | 0 | 0 | 20 | 0 | 0 | 0 | 0 | 0 | 0 |  |  |  |  | Pre-emergence effect at 80 g/ha against ZEAMX in % ([2]; 80 g/ha): 0%
COC(=O)C(OC)Oc1nn(-c2ccccc2F)c(-c2ccc(F)nc2)c1C(F)(F)C(F)(F)F (stereo not shown) [Example I-60] |  |  |  |  |  |  | 0 |  | 0 |  | 10 | 90 | 0 | 0 | Post-emergence effect against VERPE in % [9]: 80%; Post-emergence effect against AVEFA [10]: 80%; Post-emergence effect against POLCO in % [11]: 90%
COC(=O)C(OC)Oc1nn(-c2cccc(C)c2F)c(-c2ccc(F)nc2)c1C1CC1 (stereo not shown) [Example I-93] |  |  |  |  |  |  |  |  | 10 | 20 | 20 | 80 | 10 | 0 | Post-emergence effect against ABUTH ([13]; 80 g/ha): 80%; Post-emergence effect against ABUTH ([13]; 320 g/ha): 90%; Post-emergence effect against AMARE [14]: 90%
